Test results published in publication PMC12703741, “Light-Activated Metal-Dependent Protein Degradation: A Heterobifunctional Ruthenium(II) Photosensitizer Targeting New Delhi Metallo-β-lactamase 1” (Journal of the American Chemical Society, 2025).
Where two headings read alike, the source gives them in different places.

Experiments:
[1] = biological target: T1, NDM-1 (Klebsiella pneumoniae, UniProt C7C422)
Protocol: 1.4.1 Differential Scanning Fluorimetry (DSF)
DSF was performed using the Applied Biosystems QuantStudio 5 thermal cycler (Thermo
Fisher Scientific). Results were analysed and Tm determined with the Applied Biosystems
Protein Thermal Shift Software v1.4 and Tm values determined by the software. DSF was
conducted in sealed MicroAmp Optical 384-Well Reaction Plates (Thermo Fisher Scientific).
at a temperature ramp rate of 0.03 °C/s. For compound-protein interaction studies, a final
containing 5X SYPRO Orange (Thermo Fisher Scientific), 50 mM HEPES and 5%(v/v)
DMSO-d6. The final reaction volume was 20 µL per well. All DMSO compound stocks used
for DSF experiments were freshly prepared from solid stocks. All DSF measurements were
carried out in triplicate and the Tm reported is the mean value and the error is the standard
deviation. For all compounds tested, a no protein control run was included to see potential
changes in fluorescence resulting from a compound-dye interaction.

[2] = test system: HepG2
[3] = test system: HEK293T
[4] = biological target: T1, NDM-1; remark: listed apart in the source
[5] = test system: hTERT RPE-1
[6] = Chromatographic LogD measurement; conditions: pH 7.4
Protocol: ChromLogD measurements were adapted from a previously reported procedure.3 The reversed
phase HPLC measurements were measured using an Agilent 1100 Series, equipped with an
Eclipse Plus C18 column 4.6 x 50 mm, using a gradient of 50 mM ammonium acetate/CH3CN
0 – 100% over 10 min. The mobile phase was adjusted to pH = 7.4 using concentrated sodium
The retention times (log k’) of seven commercially available compounds which cover the log
D range from -0.02 to 3.18 (theophylline, 5-phenyl-1H-tetrazole, benzimidazole, colchicine,
acetophenone, indole, propiophenone, butyrophenone, and benzophenone) were calculated
using the below equation, where tR is the retention time of the compound and t0 is the column
dead time, measured by injecting uracil (0.853 min).
The average retention times (tR) of two consecutive injections of sample were used to calculate
the log k’ values, which were then used to create the standard curve (Figure S1).

[7] = test system: HeLa
[8] = test system: E. coli NDM-1
Protocol: based screening experiments were performed in biological triplicate, each replicate starting
from a new single colony inoculation. Statistical significance was determined using two-way
ANOVA followed by Sidak’s multiple comparison test, with a single pooled variance.
Concentration (MIC) assay
20% glycerol stocks of E. coli MG1655 pSU18 NDM-1 (E. coli NDM-1) and E. coli MG1655
pSU18 empty (E. coli empty) stored at -80 °C were used to streak nutrient agar plates. After
The MHBII culture growing both E. coli strains contained chloramphenicol
as an antibiotic resistance marker (2 µg/mL, equivalent to ¼ MICE. coli for chloramphenicol =
8 µg/mL). The resulting suspensions were each diluted 100 x (15 µL in 1.5 mL) in MHBII with
chloramphenicol (2 µg/mL), and the resultant suspensions were incubated to OD600 = 0.6-1.2
To generate the two-dimensional drug interaction matrix, four 96-well source plates were
prepared. In Source Plates A1-3, the three analytes were subjected to a two-fold serial dilution
across the rows (A to G), maintaining constant concentrations within each row and achieving
a vertical concentration gradient. In parallel, Source Plate B was prepared by diluting
meropenem in a two-fold series across the Columns (9 to 2), generating a horizontal
concentration gradient across the plate. Equal volumes (1 µL) from one of the source plates A
and source plate B were transferred into a 96-well assay plate to establish the checkerboard
layout with a 50X dilution into MHBII (50 μL total volume).
The prepared bacterial cells were diluted to OD600 = 0.01. Each prepared checkerboard plate
was then inoculated with 50 μL per well of bacterial culture in MHBII with ½ MIC of
chloramphenicol (100 μL total volume per well , final OD600 = 0.005). Control wells were
included to account for drug-free growth, sterility, and single-agent gradient exposures. Dark
For the light condition, the
OD600 was measured on a BMG Labtech CLARIOstar plate reader. The MIC is the first value
at which no growth is seen. All E. coli NDM-1 data were averaged from 3 biological replicates,

[9] = test system: E. coli empty; conditions: dark and light samples equivalent
[10] = biological target: T1, NDM-1; type: biochemical; conditions: mixture of NDM-1 and BSA, 0-1000 μM, light 450 nm, 20 J cm^-2
Protocol: 1.8 Protein degradation via SDS-PAGE […]
were made at 10 mM in DMSO and then diluted to the appropriate concentration (1 mM – 10 µM) in 50 mM HEPES pH 7.5. The enzyme stocks (10 µM) were made up in 50 mM HEPES pH 7.5. The compound and enzyme stocks were mixed 1:1 and then pre -incubated for 10 min […]
‘light’ conditions the samples were transferred to a 96 well plate to provide irradiation. For a […]
(208 s, 96 mW cm-2). For a dose of 60 J cm-2 the plate was irradiated immediately (624 s, 96 […]
An aliquot of each sample was mixed with SDS-sample buffer (NuPAGE® LDS Sample buffer 4x) and heated to 95°C for 3 min. The samples were loaded on to the gel (NuPAGE® 4-12% Bis-tris gel) and run at 200V/125 mA for 30 min (1 gel per Gel box) or 60 min (2 gels per Gel box). SDS-PAGE gels were imaged using a Cytiva Amersham ImageQuant™ 800.
Densitometry of gel bands was measured and processed using Fiji (ImageJ).
1.8.3 BSA+NDM-1 selectivity experiment […]
nm, 20 J cm-2). Lane 1: Ladder; Lane 2: NDM-1 – no compound control (dark); Lane 3: BSA – no compound control (dark); Lane 4: NDM-1 + BSA - no compound control (dark); Lane 5: NDM-1 + BSA + 1 eq. compound (dark); Lane 6: NDM-1 + BSA + 10 eq. compound (dark); Lane 7: NDM-1 + BSA + 100 eq. compound (dark); Lane 8: NDM-1 + BSA - no compound control (light); Lane 9: NDM-1 + BSA + 1 eq. compound (light); Lane 10: NDM-1 + BSA + 10 eq. compound (light); Lane 11: NDM-1 + BSA + 100 eq. compound (light). […]
the dark (left) and under light irradiation (450 nm, 20 J cm-2).

[11] = biological target: NDM-1 in E. coli NDM-1 (Klebsiella pneumoniae, UniProt C7C422); conditions: E. coli NDM-1, nitrocefin
Protocol: shaking at 180 rpm for 18 hours. The overnight suspensions were subcultured (1:100) in fresh LB and incubated to yield an OD600 of 0.55-0.60. The were harvested and pelleted at 3500  g for 15 minutes at 4 °C. The pellets were washed with PBS and pelleted again under the same
conditions. The bacteria were then stored as pellets at 4 C until required for the assay and to
be used within 5 hours. To prepare the bacteria fo r the assay, a pellet was resuspended in an
adjusted volume of fresh PBS to achieve an OD600 ≈ 5.0 and then kept at 4 C for 1 hr before
being used. The bacteria were then diluted to OD600 ≈ 2.0 in fresh PBS and used immediately.
inhibitor control, and one row of Bacteria Buffer B (50 µL) which served as a no-bacteria
control (providing five rows in total). Bacteria stock (OD600 ≈ 2.0, 40 µL, final concentration
of bacteria in well = OD600 ≈ 0.8) was added to each well of the first four rows, the plate was
sealed, and the samples then pre-incubated for 60 min under either ‘dark’ or ‘light’ conditions
Under ‘dark’ conditions, the plate was left sealed in a
substrate in well = 100 µM) was conducted manually and then the plate immediately resealed
substrate had been completely consumed. Method conditions are as follows: cycle time = 100

[12] = 1O2 quantum yield by DPBF photooxidation; type: physicochemical; conditions: oxygenated methanol, 450 nm
Protocol: The 1O2 quantum yields were determined by tracking the photooxidation of 1,3-
fully aerated and exposed to LED irradiation at 450 nm (1 3 mW cm−2).
reaction mixture at 411 nm was recorded at one-second intervals.
cumulative absorbance changes at 411 nm versus cumulative irradiation time.

[13] = test system: HaCaT
[14] = Photostability by UV-Vis in PBS; type: physicochemical; conditions: 10 μM, 450 nm
Protocol: Both complexes were stable up to and including 23 J cm^–2 (Figure S5). The lifetime of the excited state is one of the key factors which affect ROS generation. […] To quantify the generation of ^1O2 produced by the complexes, 1,3-diphenylisobenzofuran (DPBF) was used as a ^1O2 scavenger. […]
spectra of both compounds in PBS ( 10 μM) under light irradiation (450 nm, 23 J cm -2 over 240 […]
1.2.4 Electron Paramagnetic Resonance (EPR)
All EPR measurements were performed using a Bruker Magnettech spectrometer (ESR5000), Bruker (Germany), at room temperature. EPR samples were transferred to a 20 μL BLAUBRAND micropipette and spectra were recorded at 9.47 GHz microwave frequency, 2 mW microwave power, 100 kHz modulation frequency and 0.1 mT modulation amplitude. The field was scanned from 331.3 mT to 343.3 mT and a single scan was acquired.

T1 sequence (C7C422 31-270 limits assumed): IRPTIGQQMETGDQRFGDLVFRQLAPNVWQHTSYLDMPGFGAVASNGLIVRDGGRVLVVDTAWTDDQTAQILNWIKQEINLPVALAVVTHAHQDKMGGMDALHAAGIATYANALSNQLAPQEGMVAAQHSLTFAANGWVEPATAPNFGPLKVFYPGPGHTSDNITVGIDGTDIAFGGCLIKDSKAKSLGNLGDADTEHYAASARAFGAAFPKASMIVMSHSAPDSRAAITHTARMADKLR
Chain of NDM-1 in E. coli NDM-1 (C7C422 29-270 limits assumed): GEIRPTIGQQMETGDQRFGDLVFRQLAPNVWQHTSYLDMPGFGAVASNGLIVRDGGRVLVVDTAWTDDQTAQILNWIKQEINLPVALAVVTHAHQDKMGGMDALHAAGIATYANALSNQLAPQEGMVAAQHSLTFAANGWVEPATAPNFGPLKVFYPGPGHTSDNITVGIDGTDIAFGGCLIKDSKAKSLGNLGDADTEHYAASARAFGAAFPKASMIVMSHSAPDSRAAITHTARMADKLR

With F[P-](F)(F)(F)(F)F.F[P-](F)(F)(F)(F)F.[Ru+2].c1ccc(-c2ccccn2)nc1.c1ccc(-c2ccccn2)nc1.c1ccc(-n2cnc3c4cccnc4c4ncccc4c32)cc1 [Ru2, [Ru(2,2'-bipyridine)2(1-phenyl-imidazo[4,5,f][1,10]phenanthroline)](PF6)2] the “Change in melting temperature (ΔT) of NDM-1” value (“Change … (ΔT) of NDM-1” below) ([1]; compound 4 μM) was 0.0 °C, the “Change … (ΔT) of NDM-1” value ([1]; compound 16 μM) was 0.0 °C and the “Change … (ΔT) of NDM-1” value ([1]; compound 63 μM) was 0.0 °C. The “Effect on melting temperature of NDM-1” value ([1]; in words) was “no effect”, the LD50 ([2]; HepG2, 24 h) was > 50 µM and the LD50 ([2]; HepG2, 48 h) was > 50 µM. For the same compound, the LD50 ([3]; 24 h) was > 50 µM, the LD50 ([3]; 48 h) was > 50 µM and the “Fold difference in IC50(light) between Ru1 and untargeted control Ru2” value ([4]; 450 nm, 20 J cm^-2) was “approximately 25 fold”. The IC50 ([4]; read-out: IC50(light), recombinant NDM-1, nitrocefin, light 450 nm, 20 J cm^-2) was 5.6 ± 0.5 µM, the “IC50(dark)” value ([4]; recombinant NDM-1, nitrocefin, dark) was “no inhibition” and the LD50 ([5]; RPE1, 24 h) was > 50 µM. The LD50 ([5]; RPE1, 48 h) was > 50 µM, the ChromLogD [6] was 1.21 and the LD50 ([7]; 24 h) was > 50 µM. For the same compound, the LD50 ([7]; 48 h) was > 50 µM, the MIC ([8]; E. coli NDM-1, dark and light samples equivalent) was >160 µM and the “Fold change in Meropenem MIC” value ([8]; compound 5 μM, dark) was 0 fold. For the same compound, the “Fold change in Meropenem MIC” value ([8]; compound 5 μM, light 450 nm, 60 J cm^-2) was 0 fold, the “Fold change in Meropenem MIC” value ([8]; compound 10 μM, dark) was 0 fold and the “Fold change in Meropenem MIC” value ([8]; compound 10 μM, light 450 nm, 60 J cm^-2) was 0 fold. The “Fold change in Meropenem MIC” value ([8]; compound 20 μM, dark) was 0 fold, the “Fold change in Meropenem MIC” value ([8]; compound 20 μM, light 450 nm, 60 J cm^-2) was 0 fold and the “Fold change in Meropenem MIC” value ([8]; compound 40 μM, dark) was 0 fold. The “Fold change in Meropenem MIC” value ([8]; compound 40 μM, light 450 nm, 60 J cm^-2) was 0 fold, the “Fold change in Meropenem MIC” value ([8]; compound 80 μM, dark) was 0 fold and the “Fold change in Meropenem MIC” value ([8]; compound 80 μM, light 450 nm, 60 J cm^-2) was 0 fold. For the same compound, the MIC [9] was >160 µM, the “Degradation of NDM-1 vs BSA (band intensity)” value [10] was “both NDM-1 and BSA band intensities were diminished” and the “IC50(dark)” value ([11]; dark) was “no inhibition”. The “IC50(light)” value ([11]; light 450 nm, 60 J cm^-2) was “no inhibition”, the “1O2 quantum yield (ΦΔ)” value [12] was 0.87 and the LD50 ([13]; 24 h) was > 50 µM. The LD50 ([13]; 48 h) was > 50 µM and the “Light dose up to which complex is stable” value [14] was ≥ 23 J cm^–2.
